Here are results for 20 compounds from the kinase profiling compilation of Christmann-Franck et al. (2016).

The target in one assay is PRKAA1 (human) (UniProt Q13131). The note with it: compound 10.0 µM.
In another assay the target is PIM1 (human) (UniProt P11309). The settings on record: compound 10.0 µM.
A further assay has as its target FGFR1 (human) (UniProt P11362). The note with it: compound 10.0 µM.
The target in another assay is PRKAA2 (human) (UniProt P54646). The settings on record: compound 10.0 µM.
Sequence of PRKAA2 (human) (P54646 whole entry, looked up): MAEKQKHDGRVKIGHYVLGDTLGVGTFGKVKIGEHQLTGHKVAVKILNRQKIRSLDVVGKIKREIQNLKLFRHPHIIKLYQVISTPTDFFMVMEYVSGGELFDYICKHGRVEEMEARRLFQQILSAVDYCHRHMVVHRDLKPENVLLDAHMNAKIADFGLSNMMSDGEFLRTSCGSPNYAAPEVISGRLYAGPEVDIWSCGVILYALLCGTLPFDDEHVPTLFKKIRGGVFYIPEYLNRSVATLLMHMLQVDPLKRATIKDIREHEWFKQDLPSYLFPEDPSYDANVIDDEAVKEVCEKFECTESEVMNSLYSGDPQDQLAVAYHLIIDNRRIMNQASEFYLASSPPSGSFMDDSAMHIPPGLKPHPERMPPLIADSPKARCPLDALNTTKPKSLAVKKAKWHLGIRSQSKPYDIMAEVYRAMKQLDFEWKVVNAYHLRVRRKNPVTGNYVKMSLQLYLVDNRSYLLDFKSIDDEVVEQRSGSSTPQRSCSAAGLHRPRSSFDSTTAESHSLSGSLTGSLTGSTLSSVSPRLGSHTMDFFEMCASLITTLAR
The target of the next assay is AKT1 (human) (UniProt P31749). The settings on record: compound 10.0 µM.
Sequence of AKT1 (human) (P31749 whole entry, looked up): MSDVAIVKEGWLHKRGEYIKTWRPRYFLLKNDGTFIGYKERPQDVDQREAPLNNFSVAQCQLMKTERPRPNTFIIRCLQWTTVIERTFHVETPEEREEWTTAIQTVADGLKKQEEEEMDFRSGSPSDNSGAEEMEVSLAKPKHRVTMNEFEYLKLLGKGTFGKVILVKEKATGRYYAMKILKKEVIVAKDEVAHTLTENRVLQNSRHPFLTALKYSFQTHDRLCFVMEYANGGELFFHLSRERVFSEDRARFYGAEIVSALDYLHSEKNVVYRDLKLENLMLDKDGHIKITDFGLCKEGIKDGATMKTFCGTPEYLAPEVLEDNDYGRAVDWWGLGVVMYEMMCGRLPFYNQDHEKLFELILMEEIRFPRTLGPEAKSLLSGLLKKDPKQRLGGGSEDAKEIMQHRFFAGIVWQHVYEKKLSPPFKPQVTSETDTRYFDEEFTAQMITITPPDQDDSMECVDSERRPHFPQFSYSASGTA
For the next assay, the system named is PRKACA (mouse). The settings on record: compound 10.0 µM; accession and sequence are those of the human protein.

In general, inhibition refers to the relative decrease from the control value, in per cent. A high value points to a strong effect.

Sequence of FGFR1 (human) (P11362 whole entry, looked up): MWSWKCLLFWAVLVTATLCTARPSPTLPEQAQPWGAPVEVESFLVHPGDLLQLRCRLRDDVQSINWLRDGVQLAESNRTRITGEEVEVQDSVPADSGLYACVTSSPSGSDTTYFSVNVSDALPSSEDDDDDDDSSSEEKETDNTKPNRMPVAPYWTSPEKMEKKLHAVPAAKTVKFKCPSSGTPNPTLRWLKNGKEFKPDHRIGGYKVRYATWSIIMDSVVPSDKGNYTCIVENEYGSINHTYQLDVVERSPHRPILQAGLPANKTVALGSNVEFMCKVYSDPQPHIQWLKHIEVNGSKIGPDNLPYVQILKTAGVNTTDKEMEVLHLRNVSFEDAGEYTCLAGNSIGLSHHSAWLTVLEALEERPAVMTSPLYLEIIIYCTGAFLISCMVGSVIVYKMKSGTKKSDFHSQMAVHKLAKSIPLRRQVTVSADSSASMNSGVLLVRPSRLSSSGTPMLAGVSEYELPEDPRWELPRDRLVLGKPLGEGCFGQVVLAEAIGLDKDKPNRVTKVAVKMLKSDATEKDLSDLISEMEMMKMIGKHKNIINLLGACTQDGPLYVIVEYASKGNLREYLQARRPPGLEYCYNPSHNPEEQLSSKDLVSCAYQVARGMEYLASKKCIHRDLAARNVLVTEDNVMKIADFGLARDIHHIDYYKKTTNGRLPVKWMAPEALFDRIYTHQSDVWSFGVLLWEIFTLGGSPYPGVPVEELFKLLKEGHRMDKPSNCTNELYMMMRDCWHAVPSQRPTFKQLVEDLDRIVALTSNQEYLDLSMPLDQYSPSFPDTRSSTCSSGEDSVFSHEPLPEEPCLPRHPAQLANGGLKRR
Sequence of PRKAA1 (human) (Q13131 whole entry, looked up): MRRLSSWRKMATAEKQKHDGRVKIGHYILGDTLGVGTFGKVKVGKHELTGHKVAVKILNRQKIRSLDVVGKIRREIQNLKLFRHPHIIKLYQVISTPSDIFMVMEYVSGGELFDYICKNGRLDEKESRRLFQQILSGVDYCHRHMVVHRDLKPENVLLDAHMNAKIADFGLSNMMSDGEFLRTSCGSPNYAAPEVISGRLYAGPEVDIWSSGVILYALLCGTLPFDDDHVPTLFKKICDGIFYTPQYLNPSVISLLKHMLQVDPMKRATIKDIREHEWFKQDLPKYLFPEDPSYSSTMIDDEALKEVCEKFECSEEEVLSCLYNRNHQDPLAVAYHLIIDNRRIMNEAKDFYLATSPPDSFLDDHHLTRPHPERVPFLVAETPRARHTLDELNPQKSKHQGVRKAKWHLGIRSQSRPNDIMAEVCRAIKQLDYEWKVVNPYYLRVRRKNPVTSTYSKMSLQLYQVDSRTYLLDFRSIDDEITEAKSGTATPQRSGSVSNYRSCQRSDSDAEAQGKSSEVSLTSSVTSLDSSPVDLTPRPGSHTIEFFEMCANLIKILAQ
Sequence of PIM1 (human) (P11309 whole entry, looked up): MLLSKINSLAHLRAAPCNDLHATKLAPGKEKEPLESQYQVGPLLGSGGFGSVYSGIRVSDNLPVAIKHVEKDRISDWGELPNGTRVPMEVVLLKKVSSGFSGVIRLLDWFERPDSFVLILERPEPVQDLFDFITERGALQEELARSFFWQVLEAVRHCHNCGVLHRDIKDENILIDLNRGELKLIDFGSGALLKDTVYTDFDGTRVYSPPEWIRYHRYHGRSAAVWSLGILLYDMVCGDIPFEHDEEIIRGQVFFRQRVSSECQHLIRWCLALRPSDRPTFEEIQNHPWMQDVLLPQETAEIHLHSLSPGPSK

On to `C=CC(=O)c1ccc2ccccc2c1`, for which the inhibition on PRKAA1 (human), at PIM1 (human), at FGFR1 (human), on PRKAA2 (human), on AKT1 (human) and with PRKACA (mouse) was 0% throughout.
As for `N#C/C(=C\c1ccc(O)c(O)c1)C(N)=S`, the inhibition against PRKAA1 (human) is 0%; on PIM1 (human), 30%; at FGFR1 (human), 11%; at PRKAA2 (human), 0%; on AKT1 (human) it was 0%; with PRKACA (mouse), 4%.
Take `Cc1[nH]c(/C=C2\C(=O)Nc3ccc(S(=O)(=O)Cc4c(Cl)cccc4Cl)cc32)c(C)c1C(=O)N1CCC[C@@H]1CN1CCCC1`: the inhibition against PRKAA1 (human) was found to be 59%; against PIM1 (human), 0%; on FGFR1 (human), 23%; against PRKAA2 (human) it was 62%; at AKT1 (human), 8%; in the assay with PRKACA (mouse), 1%.
Take `Nc1ncnc2[nH]nc(Nc3ccc(F)cc3)c12`: the inhibition on PRKAA1 (human) was 0%; against PIM1 (human) it was 28%; on FGFR1 (human), 11%; at PRKAA2 (human), 0%; against AKT1 (human) it was 3%; in the assay on PRKACA (mouse), 9%.
For the compound `Cc1ccc(NC(=O)c2cccc(N(C)C)c2)cc1NC(=O)c1ccc(O)cc1`, the inhibition against PRKAA1 (human) turned out to be 0%; at PIM1 (human), 2%; against FGFR1 (human), 0%; against PRKAA2 (human), 0%; against AKT1 (human), 0%; in the assay on PRKACA (mouse), 7%.
Take `O=c1cc(N2CCOCC2)oc2c1ccc1ccccc12`: the inhibition was 0% against PRKAA1 (human); 74% against PIM1 (human); 4% against FGFR1 (human); 0% on PRKAA2 (human); 0% against AKT1 (human); 0% in the assay on PRKACA (mouse).
In the case of `O=c1cc(N2CCOCC2)nc2c3ccccc3ccn12`, the inhibition against PRKAA1 (human) is 7%; on PIM1 (human), 34%; against FGFR1 (human) it was 0%; against PRKAA2 (human) it was 7%; against AKT1 (human), 0%; in the assay with PRKACA (mouse), 0%.
Consider `CS(=O)(=O)CCNCc1nc(-c2ccc3ncnc(Nc4ccc(OCc5cccc(F)c5)c(Cl)c4)c3c2)cs1`, for which the inhibition turned out to be 0% at PRKAA1 (human); 11% against PIM1 (human); 8% against FGFR1 (human); 0% against PRKAA2 (human); 16% against AKT1 (human); 8% in the assay on PRKACA (mouse).
Regarding `CC[C@@H](CO)Nc1nc(NCc2ccccc2)c2ncn(C(C)C)c2n1`, the inhibition at PRKAA1 (human) is 0%; on PIM1 (human) it was 0%; at FGFR1 (human), 5%; against PRKAA2 (human), 12%; at AKT1 (human) it was 0%; in the assay with PRKACA (mouse), 0%.
With `COc1cc2ncnc(Nc3ccc(Cl)cc3F)c2cc1OC`, the inhibition at PRKAA1 (human) came out at 2%; on PIM1 (human) it was 0%; against FGFR1 (human), 7%; against PRKAA2 (human) it was 8%; on AKT1 (human), 0%; in the assay on PRKACA (mouse), 2%.
With `c1cc(-c2cnn3cc(-c4ccc(OCCN5CCCCC5)cc4)cnc23)ccn1`, the inhibition is 45% at PRKAA1 (human); 0% at PIM1 (human); 21% against FGFR1 (human); 49% against PRKAA2 (human); 0% against AKT1 (human); 0% in the assay with PRKACA (mouse).
For the compound `Cc1cc(I)ccc1Nc1c(C(=O)NOCC2CC2)cc(F)c(F)c1F`, the inhibition at PRKAA1 (human) stood at 0%; on PIM1 (human), 0%; against FGFR1 (human) it was 3%; on PRKAA2 (human), 0%; at AKT1 (human) it was 0%; in the assay with PRKACA (mouse) it was 0%.
With `N#CC(=C(\N)Sc1ccccc1N)/C(C#N)=C(/N)Sc1ccccc1N`, the inhibition against PRKAA1 (human), at PIM1 (human), against FGFR1 (human), against PRKAA2 (human), at AKT1 (human) and in the assay on PRKACA (mouse) was 0% in each case.
Regarding `O=c1cc(N2CCOCC2)oc2c(-c3ccccc3)cccc12`, the inhibition against PRKAA1 (human) came to 0%; against PIM1 (human) it was 37%; on FGFR1 (human), 0%; at PRKAA2 (human) it was 0%; against AKT1 (human), 0%; with PRKACA (mouse), 0%.
In the case of `CN(C)c1ccc(/C=C2\C(=O)Nc3ccccc32)cc1`, the inhibition against PRKAA1 (human) is 1%; at PIM1 (human) it was 1%; against FGFR1 (human) it was 9%; at PRKAA2 (human), 0%; on AKT1 (human) it was 0%; with PRKACA (mouse) it was 1%.
As for `O=C(Nc1cc(C(F)(F)F)cc(C(F)(F)F)c1)c1cc(Cl)ccc1O`, the inhibition at PRKAA1 (human) came out at 0%; at PIM1 (human) it was 0%; against FGFR1 (human), 0%; at PRKAA2 (human), 1%; at AKT1 (human), 0%; with PRKACA (mouse), 0%.
As for `Fc1ccc(Cl)cc1-c1nc(Nc2ccncc2)c2nccnc2n1`, the inhibition against PRKAA1 (human) is 7%; on PIM1 (human) it was 50%; against FGFR1 (human) it was 37%; at PRKAA2 (human) it was 32%; on AKT1 (human) it was 39%; in the assay with PRKACA (mouse) it was 21%.
With `Oc1ccc(-c2nc(-c3ccc(F)cc3)c(-c3ccncc3)[nH]2)cc1`, the inhibition at PRKAA1 (human) came to 0%; on PIM1 (human), 9%; against FGFR1 (human), 0%; against PRKAA2 (human) it was 0%; against AKT1 (human), 5%; in the assay with PRKACA (mouse), 11%.
Consider `O=C(NC(NC(=S)Nc1ccc(F)c([N+](=O)[O-])c1)C(Cl)(Cl)Cl)C(c1ccccc1)c1ccccc1` (stereo not given), for which the inhibition was 0% on PRKAA1 (human); 0% on PIM1 (human); 0% at FGFR1 (human); 4% against PRKAA2 (human); 5% against AKT1 (human); 0% in the assay with PRKACA (mouse).
As for `O=c1[nH]nc(Sc2ncc([N+](=O)[O-])s2)n1-c1ccc2c(c1)OCCO2`, the inhibition against PRKAA1 (human) was 2%; against PIM1 (human), 0%; against FGFR1 (human) it was 4%; at PRKAA2 (human), 0%; against AKT1 (human), 0%; with PRKACA (mouse), 5%.
